In one series the test system is GLi4. In words: MTT antiproliferative test, Gli4. The format is cell-based. The conditions noted are these: Homo sapiens, read-out: IC50, inhibition of proliferation. The method, then:
Several cancer cell lines were used for the in vivo or in vitro biological tests: • SNB75 is a human glioblastoma line derived from a primary culture, i.e. derived from a primary malignant cancer tumor. It forms part of the panel of 59 cancer lines referenced by the NCI. Its Cosmic reference number published by the Welcome Trust Sanger Institute is 905982. This line was supplied by a person (M.D. Ph.D of the department of “Radiation Oncology”, Stanford University Medical Center). It was cultured in Ham's F-12 and DMEM (1/1) supplemented with 10% fetal bovine serum. The experiments were performed with cells in the exponential growth phase. • Gli4 (or Gli4F11) and Gli7 are cultures of cancer strain cells derived from human glioblastomas (primary cultures). These lines are CD133^+, CD15^+ which are multipotent and tumorigenic in animals. They were established by J. P. Hugnot (INM INSERM U-1051 Eq. 4), and described in Guichet, P. O. et al, Glia 2013, 61(2), 225-239; • C6 is a rat glioblastoma line. It is referenced in the ATCC under the reference CCL-107. • MDAMB-435 is a melanoma line derived from a mammary melanoma. It forms part of the panel of 59 cancer lines referenced by the NCI. It is referenced at the ATCC under the reference HTB-129. It was cultured in Ham's F-12 and DMEM (1/1) supplemented with 10% fetal bovine serum. […]

Another series relates to MDAMB-231. Nature of the series: MTT antiproliferative test, MDAMB-231. As to conditions: Homo sapiens, MDA-MB-231, read-out: IC50, inhibition of proliferation. The format is cell-based. The method, then: (§1) The lines MDAMB-435 and A431 are seeded at a density of 3000 cells per well in 96-well plates. After 24 hours, compounds 4.2a and 5.6d resuspended in 100% DMSO are added at concentrations of 0-0.001-0.010-0.1-1-10-50 μM for a final constant amount of DMSO of 0.3%. The cultures are maintained for a further 72 hours and an MTT colorimetric test is then performed. 100 μl of a solution of MTT at 5 mg/ml in PBS are added to the culture medium, which is left to incubate for 3 hours. The culture medium is removed and the cells are lyzed by adding 100 μL of a 4 mM HCl solvent, 0.1% Nondet P-40 (NP40) in isopropanol. The yellow tetrazolium MTT salt (3-(4,5-dimethylthiazol-2-yl)-2,5-diphenyl tetrazolium bromide), when it is reduced by the mitochondrial succinate dehydrogenase of active live cells, forms a blue-violet formazan product. The medium then changes from yellow to blue-violet. The intensity of this coloration at 590 nm is proportional to the number of live cells present during the test and gives an indication of the metabolic activity of these cells.
(§2) Table 1 gives the concentration values for 50% inhibition of proliferation (IC50) for compounds 4.2a and 5.6d on lines derived from bowel cancer (CaCo2), skin cancer (A431, MDAMB-435, B16F10), breast cancer (MDAMB-431), […] (HuH7), prostate cancer (DU145) and brain cancer (SNB75, Gli4, Gli7).
A general note: Tetrazolium assays rely on reduction of a dye to a coloured formazan, in cell work by metabolically active cells.

A further series can be described thus: Acute in vivo toxicity. The conditions noted are these: healthy mice; 50, 25, 10, 5 and 1 mg/kg; maximum dose 50 mg/kg. The method, then:
Studies of the acute toxicity of compounds 3.48a and 4.2a were performed on healthy mice for a concentration range of 50, 25, 10, 5 and 1 mg/kg.

For a further series, the system named is HuH7. Nature of the series: MTT antiproliferative test, HuH7. The conditions noted are these: Homo sapiens, Huh-7, read-out: IC50, inhibition of proliferation. The format is cell-based. The method, then:
as §1, §2

Another series relates to melanoma line MDAMB-435. Nature of the series: Boyden chamber migration test, MDAMB-435. The class given is cell-based, human. The conditions noted are these: for Ki: 24 hours, read-out: Inhibition constant Ki, migration. The method, then:
The effects of compounds 3.48a, 4.2a and 5.6d on the migration of cancer cells (human glioblastoma line SNB75 or primary culture of human glioblastoma Gli4F1, on the one hand, and MDAMB 435 and A431 on the other hand), were determined by performing a standard migration test in a Boyden chamber (treatment of the cells for 24 hours).
For this test, the compounds were dissolved in vitro and used in culture in 0.3% of DMSO. The interior of the inserts was covered with the extracellular matrix protein studied (laminin-1, vitronectin or fibronectin). The cells pretreated at various concentrations and untreated (controls) were deposited in the inserts covered with said protein at a rate of 50 000 cells/500 μl/insert in a medium containing 0.1% of BSA (bovine serum albumin).
500 μl of medium containing 10% fetal calf serum were then placed in each well of a Companion plate so as to allow the formation of a chemotactic gradient across the porous membrane. After 24 hours of migration in the incubator at 37° C., the supernatent was removed and the inserts rinsed with PBS on each face. The cells were counted with a microscope (Zeiss Axiophot, magnification ×200). This gives a percentage of migration relative to the untreated cells.
Table 2 below gives, for compound 3.48a, the values for the inhibition constants (Ki) for the migration of a human GBM line (SNB75), of GBM stem cell lines (Gli4, Gli7) and of a breast cancer line MDAMB231, in a Boyden chamber, on various extracellular matrix protein supports. Tables 3 and 4 below give, for compounds 4.2a and 5.6d, the values of the inhibition constants (Ki) for the migration of a melanoma line (MDAMB-435) or of an epidermoid cancer line (A431), in a Boyden chamber, on various extracellular matrix protein supports. The inhibitory effect depends on the line and the stem cells used, but also on the extracellular matrix protein support used.

Where two headings read alike, the source gives them in different places. A value given as a limit tells only on which side of the number the result lay.

Take `CC1(C)O[C@H]2[C@@H]([C@H]3COC(C)(C)O3)O[P@](=O)(c3ccccc3)[C@@H](OC(=O)c3ccccc3)[C@H]2O1` [Compound 4.2a, (SPRSRR)-3-benzoate-4-(2,2-dimethyl-[1,3]dioxolan-4-yl)-2,2-dimethyl-2-oxo-2-phenyl-tetrahydro-2λ^5-[1,2]oxaphosphinane]: the IC50 in the series on GLi4 was 6810 nM; in the series with MDAMB-231 it was 1160 nM; with HuH7 it was greater than 100000 nM; in the series on melanoma line MDAMB-435 (Homo sapiens, MDA-MB-435, on fibronectin or vitronectin, read-out: Concentration for a 50% decrease in migration of the cancer cells) it was 10 to 100 nM. Besides, the “Mortality, acute toxicity” value in “Acute in vivo toxicity” is “No mortality was observed”. The Ki is 33 nM on melanoma line MDAMB-435 (support Fibronectin), 34 nM at melanoma line MDAMB-435 (support Laminin) and 61 nM at melanoma line MDAMB-435 (support Vitronectin).

Values taken from patent publication US20150376216A1, “SUGAR-ANALOG PHOSPHORUS-CONTAINING HETEROCYCLES HAVING AN ANTI-METASTATIC ACTIVITY” (CENTRE NATIONAL DE LA RECHERCHE SCIENTIRIQUE, priority 2013, published 2015).
